Values quoted from earlier work, collected in publication PMC6384891, “An automated microliter-scale high-throughput screening system (MSHTS) for real-time monitoring of protein aggregation using quantum-dot nanoprobes” (Scientific Reports, 2019).

Tested on: Aβ
Parameters: method as in PMID 15511626
Settings: cited from earlier work

With Tannic acid as the substance, how does the “inhibition of Aβ aggregation (in words)” value read?
The value was “dose-dependently inhibited”.
